Experimental data: US12590062B2, “PD-1/PD-L1 inhibitors” (Gilead Sciences, Inc., priority 2017, dated 2026)
pEC50, pIC50: −log10 of the molar value.

Experiments:
PD-1/PD-L1 interaction = target: T1, PD-1/PD-L1 interaction (Homo sapiens, UniProt Q9NZQ7); experiment: PD-1/PD-L1 NFAT reporter co-culture assay; assay type: cell-based; settings: Jurkat PD-1 NFAT-luciferase cells co-cultured with aAPC-PD-L1 CHO cells, 6 hrs at 37° C.; read-out: EC50 NFAT Luciferase
T1 construct: expressed in transfected cells; host or cells: CHO cells (aAPC-PD-L1) co-cultured with Jurkat cells overexpressing PD-1 and an NFAT-luciferase reporter
T1 sequence (Q9NZQ7 19-290): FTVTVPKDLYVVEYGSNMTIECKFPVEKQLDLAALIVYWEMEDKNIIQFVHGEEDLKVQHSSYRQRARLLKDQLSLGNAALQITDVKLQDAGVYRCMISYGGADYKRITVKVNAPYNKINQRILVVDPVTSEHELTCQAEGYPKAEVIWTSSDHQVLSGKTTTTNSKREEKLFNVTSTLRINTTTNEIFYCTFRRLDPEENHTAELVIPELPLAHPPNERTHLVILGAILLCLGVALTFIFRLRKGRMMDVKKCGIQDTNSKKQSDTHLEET
How it was run: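 First, CHO cells displaying anti-CD3 antibody and PD-L1 were plated overnight. Next, compound-treated PD-1 Jurkat NFAT-luciferase reporter cells in 2% FBS RPMI were added for 6 h at 37 °C. Finally, ONE-Glo luminescence was read and EC50 values fitted with a four-parameter equation.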

PD-L1 = target: T2, PD-L1 (Homo sapiens, UniProt Q9NZQ7); experiment: PD-L1/PD-L1 dimerization biochemical protein-protein interaction assay (ALPHA); assay type: binding; settings: compound-induced PD-L1 dimerization, head prints '1 nM' (0.5 nM His-tagged PD-L1 and 0.5 nM FLAG-tagged PD-L1), read-out: AC50 PDL1 Dimer Alpha 1 nM
T2 construct: determine if they can specifically dimerize the extracellular domains of PD-L1
T2 sequence (Q9NZQ7 19-238 limits assumed): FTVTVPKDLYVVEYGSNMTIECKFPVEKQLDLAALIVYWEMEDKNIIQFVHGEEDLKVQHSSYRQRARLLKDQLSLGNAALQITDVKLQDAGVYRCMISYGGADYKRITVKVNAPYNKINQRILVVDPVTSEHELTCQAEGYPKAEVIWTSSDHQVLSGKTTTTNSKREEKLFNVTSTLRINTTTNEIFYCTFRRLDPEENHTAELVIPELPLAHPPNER
T2 sequence (Q9NZQ7 19-238 limits assumed): as above
How it was run: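 After 2 h at 25 °C with compound, His- and FLAG-tagged PD-L1 ECDs (each 0.5 nM final; 25 mM Hepes pH 7.4, 150 mM NaCl) were detected by sequential anti-His acceptor and anti-FLAG donor bead incubations. Dose-response curves fitted to four-parameter equation for AC50.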

PD-1/PD-L1 = PD-1/PD-L1 (Homo sapiens, UniProt Q9NZQ7); experiment: PD-1/PD-L1 biochemical protein-protein interaction assay (ALPHA); assay type: binding; settings: 0.3 nM His tagged PD-L1, 2.5 nM biotinylated Fc-PD-1, 60 minutes at 25° C., read-out: IC50 PD-L1-PD-1 Alpha IC50-mono PD-L1-fcP-D1
PD-1/PD-L1, sequence (Q9NZQ7 19-238 limits assumed): as above
How it was run: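 IC50 values derive from four-parameter fits of ALPHA signal decrease. Assay: 0.3 nM His-tagged PD-L1 with 2.5 nM biotinylated Fc-PD-1, Hepes pH 7.4 with 0.005% Tween 20 and 0.01% BSA, 60 min at 25° C, then anti-His acceptor and streptavidin donor beads.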

## C[C@@](CO)(NCc1cc(Cl)c(O[C@H]2CCc3c(-c4cccc(-c5ccc(OCCNCCO)cc5)c4Cl)cccc32)nc1OCc1cncc(S(C)(=O)=O)c1)C(=O)O [Example 660]
PD-1/PD-L1 interaction
  pEC50: 6.97
PD-L1
  AC50: 15.2 nM
PD-1/PD-L1
  pIC50: 10.19

## COc1nc(O[C@H]2CCc3c(-c4cccc(-c5cnc(CN6CC(O)C6)c(OC)n5)c4Cl)cccc32)c(Cl)cc1CN1CC[C@H](C(=O)O)C1 [Example 709]
PD-1/PD-L1 interaction
  pEC50: 7.68
PD-L1
  AC50: 49.4 nM
PD-1/PD-L1
  pIC50: 10.19

## Cc1c(COc2cc(OCc3cncc(C#N)c3)c(CNC[C@@H](O)CC(=O)O)cc2Cl)cccc1-c1cccc(OCc2ccc(CNC[C@@H](O)CC(=O)O)cn2)c1C [Example 392, (S)-4-(((6-(((3′-((4-((((S)-3-carboxy-2-hydroxypropyl)amino)methyl)-2-chloro-5-((5-cyanopyridin-3-yl)methoxy)phenoxy)methyl)-2,2′-dimethyl-[1,1′-biphenyl]-3-yl)oxy)methyl)pyridin-3-yl)methyl)amino)-3-hydroxybutanoic acid]
PD-1/PD-L1 interaction
  pEC50: 6.45
PD-L1
  AC50: 232 nM
PD-1/PD-L1
  pIC50: 10.29

## C[C@@](CO)(NCc1cc(Br)c(OCc2cccc(-c3cccc(-c4ccc5c(c4)C[C@@H](N)C5)c3Cl)c2Cl)nc1OCc1cncc(C#N)c1)C(=O)O [Example 554]
PD-1/PD-L1 interaction
  pEC50: 6.83
PD-L1
  AC50: 39.5 nM
PD-1/PD-L1
  pIC50: 9.82

## C[C@@](CO)(NCc1cc(Cl)c(OCc2cccc(-c3cccc(COc4cc(OCc5cncc(C#N)c5)c(CN[C@@](C)(CO)C(=O)O)cc4Cl)c3Br)c2Br)cc1OCc1cncc(C#N)c1)C(=O)O [Example 478]
PD-1/PD-L1 interaction
  pEC50: 7.32
PD-L1
  AC50: 268 nM
PD-1/PD-L1
  pIC50: 10.19

## Cc1c(-c2ccc(OCCNC[C@@H](O)CC(=O)O)cc2)cccc1-c1cccc2c1CC[C@@H]2Oc1nc(OCc2cccc(C#N)c2)c(CNC[C@@H](O)CC(=O)O)cc1Br [Example 755]
PD-1/PD-L1 interaction
  pEC50: 6.86
PD-L1
  AC50: 39.2 nM
PD-1/PD-L1
  pIC50: 9.81

## COc1nc(-c2cccc(-c3cccc(-c4ccc5c(c4)CCC5N)c3Cl)c2Cl)ccc1C1=NCCN1 (stereo not drawn) [Example 624]
PD-1/PD-L1 interaction
  pEC50: ≤ 4.30
PD-L1
  AC50: 20.9 nM
PD-1/PD-L1
  pIC50: 9.96

## Cc1c(COc2cc(OCc3cncc(C#N)c3)c(CN[C@@](C)(CO)C(=O)O)cc2Cl)cccc1-c1cccc(-c2cccc([C@@H](C)N)c2)c1C [Example 498]
PD-1/PD-L1 interaction
  pEC50: 6.95
PD-L1
  AC50: 84.7 nM
PD-1/PD-L1
  pIC50: 9.94

## COc1nc(O[C@H]2CCc3c(-c4cccc(-c5cnc6c(CN7CC8(CNC(=O)C8)C7)cn(C)c6n5)c4Cl)cccc32)c(Cl)cc1CN1CCC[C@@H](C(=O)O)C1 [Example 524]
PD-1/PD-L1 interaction
  pEC50: 7.41
PD-L1
  AC50: 67.7 nM
PD-1/PD-L1
  pIC50: 10.19

## COc1nc(-c2cccc(-c3cccc4c3CC[C@@H]4Oc3nc(OCc4cc(C#N)cc(C#N)c4)c(CNC[C@@H](O)CC(=O)O)cc3Cl)c2Cl)ccc1CNC[C@@H]1CCC(=O)N1 [Example 797]
PD-1/PD-L1 interaction
  pEC50: 7.52
PD-L1
  AC50: 41.4 nM
PD-1/PD-L1
  pIC50: 10.19

## COc1nc(-c2cccc(-c3cccc4c3CC[C@@H]4Oc3nc(OC)c(CNC[C@@H]4CCC(=O)N4)cc3Br)c2Br)ccc1CNC[C@@H]1CCC(=O)N1 [Example 698]
PD-1/PD-L1 interaction
  pEC50: 6.82
PD-L1
  AC50: 111 nM
PD-1/PD-L1
  pIC50: 9.15

## Cc1c(COc2cc(OCc3cncc(C#N)c3)c(CN[C@@](C)(CO)C(=O)O)cc2Cl)cccc1-c1c(F)ccc(-c2ccc(CN(C)C)cc2)c1Cl [Example 301, (2S)-2-((5-chloro-4-((2′-chloro-4″-((dimethylamino)methyl)-6′-fluoro-2-methyl-[1,1′:3′,1″-terphenyl]-3-yl)methoxy)-2-((5-cyanopyridin-3-yl)methoxy)benzyl)amino)-3-hydroxy-2-methylpropanoic acid]
PD-1/PD-L1 interaction
  pEC50: 5.99
PD-L1
  AC50: 95.9 nM
PD-1/PD-L1
  pIC50: 9.96

## Cc1c(COc2cc(OCc3cncc(C#N)c3)c(CN[C@@](C)(CO)C(=O)O)cc2Cl)cccc1-c1cccc(-c2ccc(CN3CC4(CCC(=O)N4)C3)cc2)c1C [Example 579]
PD-1/PD-L1 interaction
  pEC50: 6.72
PD-L1
  AC50: 34.8 nM
PD-1/PD-L1
  pIC50: 10.19

## COc1cc(-c2cccc(-c3cccc(COc4cc(OCc5cncc(C#N)c5)c(CNC[C@@H](O)CC(=O)O)cc4Cl)c3C)c2C)ccc1C1=NCCN1 [Example 502]
PD-1/PD-L1 interaction
  pEC50: 7.00
PD-L1
  AC50: 85.2 nM
PD-1/PD-L1
  pIC50: 10.09

## Cc1c(COc2cc(OCc3cncc(C#N)c3)c(CN[C@@](C)(CO)C(=O)O)cc2Cl)cccc1-c1cccc(-c2ccc(OCCN3CC4(CCC(=O)N4)C3)cc2)c1C [Example 520]
PD-1/PD-L1 interaction
  pEC50: 7.01
PD-L1
  AC50: 57.5 nM
PD-1/PD-L1
  pIC50: 10.19

## Cc1c(COc2cc(OCc3cncc(C#N)c3)c(CN[C@@](C)(CO)C(=O)O)cc2Cl)cccc1-c1cccc(-c2ccc(CN[C@H]3CC[C@H](O)CC3)cc2)c1C [Example 361, (S)-2-((5-chloro-2-((5-cyanopyridin-3-yl)methoxy)-4-((4″-((((1r,4r)-4-hydroxycyclohexyl)amino)methyl)-2,2′-dimethyl-[1,1′:3′,1″-terphenyl]-3-yl)methoxy)benzyl)amino)-3-hydroxy-2-methylpropanoic acid]
PD-1/PD-L1 interaction
  pEC50: 6.50
PD-L1
  AC50: 138 nM
PD-1/PD-L1
  pIC50: 9.89

## COc1cc(-c2cccc(-c3cccc(-c4ccc(CNC[C@@H]5CCC(=O)N5)c(OC)c4)c3Br)c2Br)ccc1CNC[C@@H]1CCC(=O)N1 [Example 477]
PD-1/PD-L1 interaction
  pEC50: 6.75
PD-L1
  AC50: 360 nM
PD-1/PD-L1
  pIC50: 8.98

## COc1nc(-c2cccc(-c3cccc4c3CC[C@@H]4Oc3nc(OCc4cncc(C#N)c4)c(CN[C@@](C)(CO)C(=O)O)cc3Cl)c2Br)ccc1CNC[C@@H]1CCC(=O)N1 [Example 700]
PD-1/PD-L1 interaction
  pEC50: 7.37
PD-L1
  AC50: 22.1 nM
PD-1/PD-L1
  pIC50: 10.19

## COc1nc(-c2cccc(-c3cccc(COc4nc(OC)c(CNC[C@@H](O)CC(=O)O)cc4Cl)c3Cl)c2Cl)ccc1CNC[C@@H]1CCC(=O)N1 [Example 590]
PD-1/PD-L1 interaction
  pEC50: 6.85
PD-L1
  AC50: 134 nM
PD-1/PD-L1
  pIC50: 9.73

## CS(=O)(=O)c1cncc(COc2nc(O[C@H]3CCc4c(-c5cccc(-c6ccc(OCCN7CC[C@@H](O)C7)cc6)c5Cl)cccc43)c(Cl)cc2CNC[C@@H](O)CC(=O)O)c1 [Example 666]
PD-1/PD-L1 interaction
  pEC50: 6.38
PD-L1
  AC50: 22.9 nM
PD-1/PD-L1
  pIC50: 10.12

## N#Cc1cncc(COc2nc(O[C@H]3CCc4c(-c5cccc(-c6nc7ccc(CNC[C@@H](O)CC(=O)O)cn7n6)c5Cl)cccc43)c(Cl)cc2CNC[C@@H](O)CC(=O)O)c1 [Example 803]
PD-1/PD-L1 interaction
  pEC50: 7.31
PD-L1
  AC50: 11.7 nM
PD-1/PD-L1
  pIC50: 10.19

## Cc1c(COc2cc(OCc3cncc(C#N)c3)c(CNC[C@@H](O)CC(=O)O)cc2Cl)cccc1-c1cccc(COc2cc(OCc3cncc(C#N)c3)c(CNC[C@@H](O)CC(=O)O)cc2Cl)c1C [Example 66, (3S,3′S)-4,4′-((((((2,2′-dimethyl-[1,1′-biphenyl]-3,3′-diyl)bis(methylene))bis(oxy))bis(5-chloro-2-((5-cyanopyridin-3-yl)methoxy)-4,1-phenylene))bis(methylene))bis(azanediyl))bis(3-hydroxybutanoic acid)]
PD-1/PD-L1 interaction
  pEC50: 6.47
PD-L1
  AC50: 370 nM
PD-1/PD-L1
  pIC50: 9.40

## Cn1cc(CN2CC3(CCC(=O)N3)C2)c2ncc(-c3cccc(-c4cccc(-c5cnc6c(CN7CC8(CCC(=O)N8)C7)cn(C)c6n5)c4Cl)c3Cl)nc21 [Example 589]
PD-1/PD-L1 interaction
  pEC50: 7.05
PD-L1
  AC50: 164 nM
PD-1/PD-L1
  pIC50: 9.79

## C[C@@](CO)(NCc1cc(Cl)c(OCc2cccc(-c3cccc(-c4ccc(OCCNCCO)cc4)c3Cl)c2Cl)nc1OCc1cncc(C#N)c1)C(=O)O [Example 340, (S)-2-(((5-chloro-2-((5-cyanopyridin-3-yl)methoxy)-6-((2,2′-dichloro-4″-(2-((2-hydroxyethyl)amino)ethoxy)-[1,1′:3′,1″-terphenyl]-3-yl)methoxy)pyridin-3-yl)methyl)amino)-3-hydroxy-2-methylpropanoic acid]
PD-1/PD-L1 interaction
  pEC50: 6.66
PD-L1
  AC50: 27.8 nM
PD-1/PD-L1
  pIC50: 10.06

## Cc1c(COc2cc(OCc3cncc(C#N)c3)c(CNCCO)cc2Cl)cccc1-c1cccc(-c2ccc(CN(C)C)cc2)c1Br [Example 450]
PD-1/PD-L1 interaction
  pEC50: 6.56
PD-L1
  AC50: 110 nM
PD-1/PD-L1
  pIC50: 8.81

## Cc1c(COc2cc(OCc3cncc(C#N)c3)c(CNC[C@@H](O)CC(=O)O)cc2Cl)cccc1-c1cccc(-c2ccc(C3=NCCN3)c(OCCCC#N)c2)c1C [Example 465]
PD-1/PD-L1 interaction
  pEC50: 6.71
PD-L1
  AC50: 84.8 nM
PD-1/PD-L1
  pIC50: 9.94

## COc1nc(O[C@H]2CCc3c(-c4cccc(-c5ccc(CNC[C@@H]6CCC(=O)N6)c(OCC#N)n5)c4Cl)cccc32)c(Cl)cc1CNC[C@@H]1CCC(=O)N1 [Example 656]
PD-1/PD-L1 interaction
  pEC50: 7.62
PD-L1
  AC50: 37.7 nM
PD-1/PD-L1
  pIC50: 9.54

## COc1nc(-c2cccc(-c3cccc(-c4ccc5c(CNC[C@H]6CCC(=O)N6)cn(C)c5c4)c3Cl)c2Cl)ccc1CNC[C@H]1CCC(=O)N1 [Example 605]
PD-1/PD-L1 interaction
  pEC50: 6.89
PD-L1
  AC50: 352 nM
PD-1/PD-L1
  pIC50: 8.98

## COc1nc(O[C@H]2CCc3c(-c4cccc(-c5ccc(CNC[C@@H]6CCC(=O)N6)c(F)c5)c4Cl)cccc32)c(Br)cc1CNC[C@@H]1CCC(=O)N1 [Example 790]
PD-1/PD-L1 interaction
  pEC50: 7.08
PD-L1
  AC50: 75.7 nM
PD-1/PD-L1
  pIC50: 9.06
